{"source": "patent US12036212B2", "about": "“Enhancement of tumor response to chemotherapy by activation of the asmase/ceramide pathway through timed administration of a short-acting anti-angiogenic agent” (Memorial Sloan-Kettering Cancer Center, priority 2014, dated 2024)", "test_system": "HCT116 human colorectal cancer xenografts", "assay": "Endothelial apoptosis in vivo (TUNEL/MECA-32) in HCT116 xenografts", "design": "species or system mice", "settings": "single dose paclitaxel 25 mg/kg, 4 hours", "experimental": "Human HCT-116 colon cancer cells and MCA/129 murine sarcoma cells were maintained in DMEM with 10% fetal bovine serum, with 100 u/ml penicillin and 100 μg/ml streptomycin. Cells were grown as monolayers in 75 cm^2 culture flasks at 37° C. in 10% CO2 humidified incubators. Cells were trypsinized, washed in PBS and diluted in Matrigel/PBS solution (40:60 v/v) for HCT-116 xenografts or in PBS for MCA/129 syngeneic tumor grafts. Cells (3×10^6 for HCT-116 or 1×10^6 for MCA129) were injected subcutaneously into the flanks of mice (Garcia-Barros et al. Science 300, 1155-1159, 2003).\nTo evaluate acute endothelial apoptosis, tumors were grown in mice and treated with drugs as above. After the first treatment, tumors were harvested at specified times, placed into formalin overnight and paraffin-embedded the next day. Paraffin-embedded sections (5 μm) were co-stained for apoptotic endothelium using TUNEL and the endothelial-specific monoclonal antibody MECA-32 (Developmental Studies Hybridoma Bank, developed under the auspices of the NICHD and maintained by The University of Iowa, IA). […]\nTo further test the ability of cisplatin to affect endothelial cell apoptosis and tumor response in vivo, effects of cisplatin on tumor growth were evaluated."}
{"smiles": "CC(=O)O[C@H]1C(=O)[C@@]2(C)[C@H]([C@H](OC(=O)c3ccccc3)[C@]3(O)C[C@H](OC(=O)[C@H](O)[C@@H](NC(=O)c4ccccc4)c4ccccc4)C(C)=C1C3(C)C)[C@]1(OC(C)=O)CO[C@@H]1C[C@@H]2O", "note": "[paclitaxel]", "values": [{"measurement": "Tumor endothelial apoptosis", "setting": "SCID asmase+/+", "result": "robust endothelial apoptosis"}, {"measurement": "Tumor endothelial apoptosis", "setting": "SCID asmase−/−", "result": "resistant to chemotherapy-induced endothelial cell apoptosis"}]}
